The values that follow come from patent EP1984353B1, “AURORA KINASE MODULATORS AND METHOD OF USE” (Amgen, Inc, priority 2006, dated 2007).

Where two headings read alike, the source gives them in different places.

The test system of assay [1] is phosphorylation of Histone H3. Kind of assay: HeLa cell 1-hour phospho-histone assay. The conditions noted are these: HeLa cells. The assay is classed as cell-based. The method, then:
HeLa cell 1-hour phospho-histone assay
The purpose of this assay is to test the inhibitory effect of Aurora compounds with respect to phosphorylation of Histone H3 in the cellular context. HeLa cells (9x10^4/well) are plated in black 96-well flat-bottom tissue culture plates and incubated for 40 hours prior to compound addition. Compounds are serially diluted in DMSO, followed by dilution into MEM containing […] HEPES; 10ul/well of diluted compounds are added to cells (0.5% DMSO final). Cells are incubated for 1 hour at 37 °C in 5% CO2. Cells are then fixed with 3.7% formaldehyde for 10 minutes, washed with wash buffer (1% goat serum and 0.1% Tween 20 in PBS), then permeabilized with 0.5% Triton X in PBS for 15 minutes. After washing with wash buffer, cells are incubated with primary antibody (Upstate #06-507 anti-phospho-histone (Ser 10) antibody (pHH3) for 1 hour at 10ug/ml. After 2 washes with wash buffer, cells are incubated with secondary antibody (Molecular Probes #A11034 goat anti-rabbit Alexa-488 for 1 hour at 1ug/ml + Hoechst 33342 nuclear dye at 1ug/ml (Molecular Probes). Cells are washed 2 times with wash buffer, and buffer replaced with PBS. Plates are scanned on the Cellomics Array Scan (6 fields, ~2000 cells/well) and % of cells that are pHH3 positive were calculated using the Cellomics algorithm.

The next assay has as its target T1, AuroraB (Homo sapiens, UniProt Q96GD4).
T1 construct: 20 µL of AuroraB FL His; His
Kind of assay: AuroraB Homogeneous Time Resolved Fluorescent (HTRF) kinase assay. The format is biochemical. Summed up:
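HTRF read-out: after EDTA stop and ~60 min with europium anti-phospho-H3 antibody and streptavidin-APC, 655/615 nm ratio reports phosphorylation. Reaction: 400 pM AuroraB FL His, 23 µM ATP (at Km(app)), 0.1 µM biotin-Histone H3 peptide, 50 mM HEPES pH 7.5, MgCl/MnCl, ~90 min.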

The target in another assay is T2, AuroraA-TPX2 (Homo sapiens, UniProt O14965).
T2 construct: 20 µL of AuroraA-TPX2 KD GST; GST
T2 sequence (O14965 133-383 limits assumed): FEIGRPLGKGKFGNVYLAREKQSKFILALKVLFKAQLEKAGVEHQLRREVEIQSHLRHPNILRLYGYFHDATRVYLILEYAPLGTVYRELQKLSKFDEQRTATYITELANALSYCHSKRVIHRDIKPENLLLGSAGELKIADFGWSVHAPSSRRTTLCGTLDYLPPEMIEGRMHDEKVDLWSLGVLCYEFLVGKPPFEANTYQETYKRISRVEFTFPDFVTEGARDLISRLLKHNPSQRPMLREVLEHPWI
T2 sequence (Q9ULW0 1-43 partner limits assumed): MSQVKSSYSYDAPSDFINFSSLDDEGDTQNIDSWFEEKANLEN
Kind of assay: AuroraA-TPX2 Homogeneous Time Resolved Fluorescent (HTRF) kinase assay. The assay is classed as biochemical. The conditions noted are these: average, read-out: AurA/TP X2_ IC50_IP (Avg). Summed up: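 HTRF read-out: europium anti-phosphoPLK antibody (0.02 nM) plus streptavidin-APC detect phosphorylated biotin-PLK after EDTA stop and overnight equilibration. Kinase step runs about 120 min with Aurora-A/TPX2, ATP and roughly 1 µM PLK peptide at pH 7.5 HEPES buffer with Mg2+ and DTT.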
(In TR-FRET formats the signal depends on donor and acceptor labels being close together.)

The mark [2] stands for this setting: Homo sapiens, HeLa, 1 h, 1 hour incubation, % of cells pHH3 positive, read-out: inhibitory activity (EC50) in the phospho-histone H3 assay.
The mark [3] stands for this setting: Homo sapiens, HeLa, 1 h, 1 hour, average, given as class symbols, read-out: pHH3 EC50_IP (Avg).
Setting [4] is: Homo sapiens, HeLa, 1 h, 1 hour, average, given as numbers, unit inferred, read-out: pHH3 EC50_IP (Avg).
Where [5] appears, read: average, given as class symbols, read-out: AurB_ _IC50_IP (Avg).

T1 sequence (Q96GD4 whole entry): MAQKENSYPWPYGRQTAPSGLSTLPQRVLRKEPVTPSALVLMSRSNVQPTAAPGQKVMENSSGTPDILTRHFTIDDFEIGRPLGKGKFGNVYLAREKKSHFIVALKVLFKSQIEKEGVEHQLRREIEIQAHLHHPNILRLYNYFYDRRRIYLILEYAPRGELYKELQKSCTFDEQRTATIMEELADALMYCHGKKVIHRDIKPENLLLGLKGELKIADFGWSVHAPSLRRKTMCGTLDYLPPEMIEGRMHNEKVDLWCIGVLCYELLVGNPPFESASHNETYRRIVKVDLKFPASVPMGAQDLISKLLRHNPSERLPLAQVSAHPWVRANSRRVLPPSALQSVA

Consider `Nc1nccc(-c2cccnc2Oc2ccc(Nc3nnc(-c4ccsc4)c4ccccc34)cc2)n1` [Example 90, N-(4-((3-(2-amino-4-pyrimidinyl)-2-pyridinyl)oxy)phenyl)-4-(3-thienyl)-1-phthalazinamine], for which the EC50 in assay [1] (setting [2]) is below 1000 nM.
Regarding `CNc1nccc(-c2cccnc2Oc2ccc(Nc3nnc(-c4ccsc4)c4ccccc34)cn2)n1` [Example 92, N-(6-((3-(2-(methylamino)-4-pyrimidinyl)-2-pyridinyl)oxy)-3-pyridinyl)-4-(3-thienyl)-1-phthalazinamine], the EC50 in assay [1] (setting [2]) is below 1000 nM.
In the case of `CNc1nccc(-c2cccnc2Oc2ccc(Nc3nnc(-c4ccccc4)c4c3CCCC4)cn2)n1` [Example 105, N-(6-((3-(2-(methylamino)-4-pyrimidinyl)-2-pyridinyl)oxy)-3-pyridinyl)-4-phenyl-5,6,7,8-tetrahydro-1-phthalazinamine], the EC50 in assay [1] (setting [2]) is below 1000 nM.
With `CNc1nccc(-c2cccnc2Oc2ccc(Nc3nnc(-c4ccccc4)c4c3C3CCC4CC3)cc2)n1` [Example 107, N-(4-((3-(2-(methylamino)-4-pyrimidinyl)-2-pyridinyl)oxy)phenyl)-6-phenyl-4,5-diazatricyclo [6.2.2.0-2,7-]dodeca-2,4,6-trien-3-amine], in assay [1] (1 hour incubation, % of cells pHH3 positive, read-out: inhibitory activity (EC50) in the phospho-histone H3 assay), the EC50 is below 1000 nM.
Take `CNc1nccc(-c2cccnc2Oc2ccc(Nc3nnc(-c4ccccc4)c4c3CCC4)cn2)n1` [Example 108, N-(6-((3-(2-(methylamino)-4-pyrimidinyl)-2-pyridinyl)oxy)-3-pyridinyl)-4-phenyl-6,7-dihydro-5H-cyclopenta[d]pyridazin-1-amine]: the EC50 in assay [1] (setting [2]) was below 1000 nM.
On to `Cc1cc(-c2ccccc2)nnc1Nc1ccc(Oc2ncccc2-c2ccnc(N)n2)cc1` [Example 119, N-(4-((3-(2-amino-4-pyrimidinyl)-2-pyridinyl)oxy)phenyl)-4-methyl-6-phenyl-3-pyridazinamine], for which the EC50 in assay [1] (setting [2]) was below 1000 nM.
The same measure, in the same setting: the figure for `CNc1cc(-c2cccnc2Oc2ccc(Nc3nnc(-c4ccccc4)c4c3CCC4)cn2)ccn1` [Example 120, N-methyl-2-((5-((4-phenyl-6,7-dihydro-5H-cyclopenta[d]pyridazin-1-yl)amino)-2-pyridinyl)oxy)-3,4'-bipyridin-2'-amine] is below 1000 nM.
For the compound `Nc1[nH]ncc1-c1cccnc1Oc1ccc(Nc2nnc(-c3ccccc3)c3ccccc23)cc1` [Example 238, N-(4-((3-(5-amino-1H-pyrazol-4-yl)-2-pyridinyl)oxy)phenyl)-4-phenyl-1-phthalazinamine], at AuroraB (read-out: inhibitory activity (IC50) in the Aurora kinase B HTRF assay), the IC50 is below 500 nM. Moreover, the EC50 in assay [1] (setting [2]) is below 1000 nM.
With `Nc1nccc(-c2cccnc2Oc2ccc(Nc3nnc(-c4ccccc4)c4ccccc34)cn2)n1` [compound 415, N-(6-((3-(2-amino-4-pyrimidinyl)-2-pyridinyl)oxy)-3-pyridinyl)-4-phenyl-1-phthalazinamine], the EC50 in assay [1] (setting [3]) was at most 100 nM.
For `Cc1csc(-c2nnc(Nc3ccc(Oc4ncccc4-c4ccnc(N)c4)cc3)c3ccccc23)c1` [compound 416, 2-((4-((4-(4-methyl-2-thienyl)-1-phthalazinyl)amino)phenyl)oxy)-3,4'-bipyridin-2'-amine], the EC50 in assay [1] (setting [4]) is 134 nM.
Regarding `Cc1cc(-c2ccccc2)nnc1Nc1ccc(Oc2ncccc2-c2ccnc(N)c2)cc1` [compound 418, 2-((4-((4-methyl-6-phenyl-3-pyridazinyl)amino)phenyl)oxy)-3,4'-bipyridin-2'-amine], the EC50 in assay [1] (setting [3]) is 100 to 500 nM.
In the case of `Cc1csc(-c2cc(C)c(Nc3ccc(Oc4ncccc4-c4ccnc(N)c4)cc3)nn2)c1` [compound 419, 2-((4-((4-methyl-6-(4-methyl-2-thienyl)-3-pyridazinyl)amino)phenyl)oxy)-3,4'-bipyridin-2'-amine], in assay [1] (setting [3]), the EC50 was 100 to 500 nM.
Consider `CCc1cc(-c2ccccc2)nnc1Nc1ccc(Oc2ncccc2-c2ccnc(N)c2)cc1` [compound 420, 2-((4-((4-ethyl-6-phenyl-3-pyridazinyl)amino)phenyl)oxy)-3,4'-bipyridin-2'-amine], for which the EC50 in assay [1] (setting [4]) amounted to 314 nM.
For `O=C(O)CCCNc1nccc(-c2cccnc2Oc2ccc(Nc3nnc(-c4ccccc4)c4ccccc34)cc2)n1` [compound 427, 4-((4-(2-((4-((4-phenyl-1-phthalazinyl)amino)phenyl)oxy)-3-pyridinyl)-2-pyrimidinyl)amino)butanoic acid], the EC50 in assay [1] (setting [3]) lay in the range of 500 to 2500 nM.
Same read-out and setting: the figure for `Cc1csc(-c2cc(C)c(Nc3ccc(Oc4ncccc4-c4ccncc4)cc3)nn2)c1` [compound 428, N-(4-(3,4'-bipyridin-2-yloxy)phenyl)-4-methyl-6-(4-methyl-2-thienyl)-3-pyridazinamine] is 500 to 2500 nM; for `Cc1cc(-c2ccccc2)nnc1Nc1ccc(Oc2ncccc2-c2ccnc(NCCCO)n2)cc1` [compound 429, 3-((4-(2-((4-((4-methyl-6-phenyl-3-pyridazinyl)amino)phenyl)oxy)-3-pyridinyl)-2-pyrimidinyl)amino)-1-propanol] it is 100 to 500 nM.
Same read-out and setting: the figure for `Cc1cc(-c2ccccc2)nnc1Nc1ccc(Oc2ncccc2-c2ccnc(NCCCC(=O)O)n2)cc1` [compound 430, 4-((4-(2-((4-((4-methyl-6-phenyl-3-pyridazinyl)amino)phenyl)oxy)-3-pyridinyl)-2-pyrimidinyl)amino)butanoic acid] is 500 to 2500 nM; for `Nc1cc(-c2cccnc2Oc2ccc(Nc3nnc(-c4ccccc4)c4ccccc34)cn2)ccn1` [compound 431, 2-((5-((4-phenyl-l-phthalazinyl)amino)-2-pyridinyl)oxy)-3,4'-bipyridin-2'-amine] it is at most 100 nM; for `O=c1cc(-c2cccnc2Oc2ccc(Nc3nnc(-c4ccccc4)c4ccccc34)cc2)cc[nH]1` [compound 432, 2-((4-((4-phenyl-1-phthalazinyl)amino)phenyl)oxy)-3,4'-bipyridin-2'(1'H)-one] it is 500 to 2500 nM.
`Cc1csc(-c2cc(C)c(Nc3ccc(Oc4ncccc4-c4ccnc(N)c4)cc3)nn2)n1` [compound 434, 2-((4-((4-methyl-6-(4-methyl-1,3-thiazol-2-yl)-3-pyridazinyl)amino)phenyl)oxy)-3,4'-bipyridin-2'-amine]: in assay [1] (setting [4]), the EC50 stood at 1000 nM.
On to `CCc1cc(-c2ccccc2)nnc1Nc1ccc(Oc2ncccc2-c2ccnc(NCCCN3CCCCC3)n2)cc1` [compound 458, 4-ethyl-6-phenyl-N-(4-((3-(2-((3-(1-piperidinyl)propyl)amino)-4-pyrimidinyl)-2-pyridinyl)oxy)phenyl)-3-pyridazinamine], for which the IC50 at AuroraB (setting [5]) and on AuroraA-TPX2 (given as class symbols) was at most 100 nM each time.
Regarding `CCc1cc(-c2ccccc2)nnc1Nc1ccc(Oc2ncccc2-c2ccnc(NCCCN3CCCC3)n2)cc1` [compound 459, 4-ethyl-6-phenyl-N-(4-((3-(2-((3-(1-pyrrolidinyl)propyl)amino)-4-pyrimidinyl)-2-pyridinyl)oxy)phenyl)-3-pyridazinamine], the IC50 on AuroraB (setting [5]) is at most 100 nM; on AuroraA-TPX2 (given as class symbols) it was 100 to 500 nM.
Regarding `COc1cccc(-c2nnc(Nc3ccc(Oc4ncccc4-c4ccnc(NCCCN5CCNCC5)n4)cc3)c3ccccc23)n1` [compound 460, 4-(6-(methyloxy)-2-pyridinyl)-N-(4-((3-(2-((3-(1-piperazinyl)propyl)amino)-4-pyrimidinyl)-2-pyridinyl)oxy)phenyl)-1-phthalazinamine], the IC50 on AuroraB (setting [5]) and at AuroraA-TPX2 (given as class symbols) was at most 100 nM in each case.
Turning to “N-(4-((3-(2-amino-4-pyrimidinyl)-2-pyridinyl)oxy)phenyl)-4-(6-methyl-2-pyridinyl)-1-phthalazinamine [compound 271]”, the IC50 at AuroraB (average, given as numbers, unit inferred, read-out: AurB_ _IC50_IP (Avg)) was 1 nM; on AuroraA-TPX2 (given as numbers, unit inferred) it was 24.3 nM.
For “N-(4-((3-(2-amino-4-pyrimidinyl)-2-pyridinyl)oxy)phenyl)-4-ethyl-6-phenyl-3-pyridazinamine [compound 435]”, the IC50 at AuroraB (setting [5]) and on AuroraA-TPX2 (given as class symbols) was at most 100 nM in each case.
